According to patent publication US11572369B2, “Bicyclic pyridine compositions and methods of using the same for cancer therapy” (UNIVERSITY OF SOUTH CAROLINA, priority 2019, dated 2023):

Legend:
Experiment in all cases: KINOMEscan
Format in all cases: binding
Conditions in all cases: 2000 nM
[1] = target: ABL1(F317L)-nonphosphorylated (Homo sapiens, UniProt P00519, F317L)
ABL1-phosphorylated = ABL1-phosphorylated (Homo sapiens, UniProt P00519)
AKT2 = target: T1, AKT2 (Homo sapiens, UniProt P31751)
T1 construct: purchased DiscoveRx (KINOMEscan scanMAX panel, service)

AXL = target: T2, AXL (Homo sapiens, UniProt P30530)
T2 construct: DNA label (qPCR read-out); purchased KINOMEscan scanMAX panel (DiscoveRx)

BMPR2 = target: T3, BMPR2 (Homo sapiens, UniProt Q13873)
T3 construct: DNA label (for qPCR read-out); purchased KINOMEscan scanMAX panel (DiscoveRx)

CAMKK1 = target: T4, CAMKK1 (Homo sapiens, UniProt Q8N5S9)
T4 construct: DNA label (qPCR read-out); purchased KINOMEscan (ScanMAX panel service)

CASK = target: T5, CASK (Homo sapiens, UniProt O14936)
T5 construct: DNA label (qPCR read-out); purchased KINOMEscan (ScanMAX panel service)

CDC2L2 = target: T6, CDC2L2 (Homo sapiens, UniProt Q9UQ88)
T6 construct: purchased DiscoverX (KINOMEscan service)

CDKL2 = target: T7, CDKL2 (Homo sapiens, UniProt Q92772)
T7 construct: DNA label (for qPCR read-out); purchased DiscoveRx (KINOMEscan scanMAX service)

CSK = target: T8, CSK (Homo sapiens, UniProt P41240)
T8 construct: DNA label; purchased DiscoveRx (KINOMEscan scanMAX panel)

EGFR(G719S) = target: T9, EGFR(G719S) (Homo sapiens, UniProt P00533, G719S)
T9 construct: purchased DiscoveRx (KINOMEscan scanMAX panel)

EPHA4 = target: T10, EPHA4 (Homo sapiens, UniProt P54764)
T10 construct: purchased DiscoveRx (KINOMEscan scanMAX panel)

EPHA5 = target: T11, EPHA5 (Homo sapiens, UniProt P54756)
T11 construct: purchased DiscoveRx (KINOMEscan scanMAX panel)

ERK3 = target: T12, ERK3 (Homo sapiens, UniProt Q16659)
T12 construct: DNA label (qPCR read-out); purchased DiscoveRx (KINOMEscan ScanMAX panel)

FGFR2 = target: T13, FGFR2 (Homo sapiens, UniProt P21802)
T13 construct: purchased DiscoveRx (KINOMEscan scanMAX panel)

FLT3 = target: T14, FLT3 (Homo sapiens, UniProt P36888)
T14 construct: purchased DiscoveRx (KINOMEscan scanMAX panel)

FLT3(K663Q) = target: T15, FLT3(K663Q) (Homo sapiens, UniProt P36888, K663Q)
T15 construct: purchased KINOMEscan (DiscoveRx)

GRK3 = target: T16, GRK3 (Homo sapiens, UniProt P35626)
T16 construct: DNA label (for qPCR read-out); purchased DiscoveRx (KINOMEscan scanMAX panel, contract assay)

ITK = target: T17, ITK (Homo sapiens, UniProt Q08881)
T17 construct: DNA label (qPCR read-out); purchased KINOMEscan (DiscoveRx) ScanMAX panel

MAP4K3 = MAP4K3 (Homo sapiens, UniProt Q8IVH8)
MET(M1250T) = target: T18, MET(M1250T) (Homo sapiens, UniProt P08581, M1250T)
T18 construct: purchased DiscoveRx (KINOMEscan scanMAX panel, service)

MINK = target: T19, MINK (Homo sapiens, UniProt Q8N4C8)
T19 construct: DNA label (qPCR read-out); purchased KINOMEscan scanMAX panel (DiscoveRx)

MST1R = target: T20, MST1R (Homo sapiens, UniProt Q04912)
T20 construct: DNA label (qPCR read-out); purchased KINOMEscan scanMAX panel (DiscoveRx)

NEK4 = target: T21, NEK4 (Homo sapiens, UniProt P51957)
T21 construct: DNA label (qPCR read-out); purchased KINOMEscan (ScanMAX panel service)

NEK5 = target: T22, NEK5 (Homo sapiens, UniProt Q6P3R8)
T22 construct: DNA label (qPCR read-out); purchased KINOMEscan (ScanMAX panel service)

PDGFRB = target: T23, PDGFRB (Homo sapiens, UniProt P09619)
T23 construct: DNA label (for qPCR read-out); purchased DiscoveRx (KINOMEscan scanMAX service)

PIK3CA = target: T24, PIK3CA (Homo sapiens, UniProt P42336)
T24 construct: DNA label (for qPCR read-out); purchased DiscoveRx (KINOMEscan scanMAX service)

PKAC-beta = target: T25, PKAC-beta (Homo sapiens, UniProt P22694)
T25 construct: DNA label (qPCR read-out); purchased KINOMEscan (DiscoveRx) panel

PLK3 = target: T26, PLK3 (Homo sapiens, UniProt Q9H4B4)
T26 construct: purchased DiscoveRx (KINOMEscan scanMAX panel)

PRKCD = target: T27, PRKCD (Homo sapiens, UniProt Q05655)
T27 construct: purchased DiscoveRx (KINOMEscan scanMAX panel)

PRKCQ = target: T28, PRKCQ (Homo sapiens, UniProt Q04759)
T28 construct: purchased DiscoveRx (KINOMEscan scanMAX panel)

RIPK4 = target: T29, RIPK4 (Homo sapiens, UniProt P57078)
T29 construct: DNA label (qPCR read-out); purchased DiscoveRx (KINOMEscan ScanMAX panel)

[2] = target: T30, RPS6KA4(Kin.Dom.2-C-terminal) (Homo sapiens, UniProt O75676)
T30 construct: Kin.Dom.2; DNA label (qPCR read-out); purchased DiscoveRx (KINOMEscan ScanMAX panel)

TESK1 = target: T31, TESK1 (Homo sapiens, UniProt Q15569)
T31 construct: DNA label (for qPCR read-out); purchased DiscoveRx (KINOMEscan scanMAX panel, contract assay)

TIE2 = target: T32, TIE2 (Homo sapiens, UniProt Q02763)
T32 construct: DNA label (qPCR read-out); purchased KINOMEscan (DiscoveRx) ScanMAX panel

YES = target: T33, YES (Homo sapiens, UniProt P07947)
T33 construct: purchased KINOMEscan (DiscoveRx) panel service

T10 sequence (P54764 20-986): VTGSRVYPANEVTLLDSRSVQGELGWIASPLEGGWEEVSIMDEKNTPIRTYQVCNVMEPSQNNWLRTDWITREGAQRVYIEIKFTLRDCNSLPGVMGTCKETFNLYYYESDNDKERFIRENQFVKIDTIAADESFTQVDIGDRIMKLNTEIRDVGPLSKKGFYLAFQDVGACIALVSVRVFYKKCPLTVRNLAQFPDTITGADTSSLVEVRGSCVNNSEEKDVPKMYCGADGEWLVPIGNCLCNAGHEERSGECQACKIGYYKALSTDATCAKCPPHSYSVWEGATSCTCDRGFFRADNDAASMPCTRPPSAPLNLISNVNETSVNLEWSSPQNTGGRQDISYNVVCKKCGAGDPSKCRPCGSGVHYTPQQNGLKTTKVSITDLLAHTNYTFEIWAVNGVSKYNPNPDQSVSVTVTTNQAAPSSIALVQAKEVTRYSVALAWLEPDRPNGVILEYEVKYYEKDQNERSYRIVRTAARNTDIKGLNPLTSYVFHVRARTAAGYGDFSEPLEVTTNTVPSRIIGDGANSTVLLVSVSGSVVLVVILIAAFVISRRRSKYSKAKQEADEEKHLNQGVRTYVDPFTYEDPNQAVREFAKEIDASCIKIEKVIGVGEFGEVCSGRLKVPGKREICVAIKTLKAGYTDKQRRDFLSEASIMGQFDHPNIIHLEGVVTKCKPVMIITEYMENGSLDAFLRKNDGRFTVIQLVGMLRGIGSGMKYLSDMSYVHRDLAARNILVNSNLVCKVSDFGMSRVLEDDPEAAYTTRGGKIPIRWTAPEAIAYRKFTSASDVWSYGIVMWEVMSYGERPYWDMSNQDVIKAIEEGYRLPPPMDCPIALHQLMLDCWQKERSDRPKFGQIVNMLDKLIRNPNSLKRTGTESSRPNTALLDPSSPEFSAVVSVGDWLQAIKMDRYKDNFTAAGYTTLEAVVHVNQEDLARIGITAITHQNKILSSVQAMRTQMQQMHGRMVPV
T12 sequence (Q16659 whole entry): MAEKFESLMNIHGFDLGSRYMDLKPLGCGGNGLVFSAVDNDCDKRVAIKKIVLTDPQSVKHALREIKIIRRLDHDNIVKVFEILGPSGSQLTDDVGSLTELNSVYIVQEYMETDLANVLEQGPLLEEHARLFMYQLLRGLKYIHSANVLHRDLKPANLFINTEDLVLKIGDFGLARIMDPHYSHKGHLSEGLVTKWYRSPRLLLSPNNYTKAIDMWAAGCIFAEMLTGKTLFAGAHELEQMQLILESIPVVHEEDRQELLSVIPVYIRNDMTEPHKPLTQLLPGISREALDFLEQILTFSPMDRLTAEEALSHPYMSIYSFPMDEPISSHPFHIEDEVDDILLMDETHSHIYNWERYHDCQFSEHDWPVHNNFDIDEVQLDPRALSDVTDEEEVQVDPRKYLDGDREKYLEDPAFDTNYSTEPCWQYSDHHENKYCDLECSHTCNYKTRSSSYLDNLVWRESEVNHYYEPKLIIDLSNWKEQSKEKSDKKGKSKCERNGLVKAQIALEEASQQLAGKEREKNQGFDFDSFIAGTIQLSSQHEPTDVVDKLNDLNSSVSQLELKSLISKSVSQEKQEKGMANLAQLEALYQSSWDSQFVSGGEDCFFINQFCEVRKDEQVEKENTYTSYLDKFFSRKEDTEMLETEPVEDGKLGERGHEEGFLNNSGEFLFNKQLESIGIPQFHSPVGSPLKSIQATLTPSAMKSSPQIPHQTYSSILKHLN
T16 sequence (P35626 whole entry): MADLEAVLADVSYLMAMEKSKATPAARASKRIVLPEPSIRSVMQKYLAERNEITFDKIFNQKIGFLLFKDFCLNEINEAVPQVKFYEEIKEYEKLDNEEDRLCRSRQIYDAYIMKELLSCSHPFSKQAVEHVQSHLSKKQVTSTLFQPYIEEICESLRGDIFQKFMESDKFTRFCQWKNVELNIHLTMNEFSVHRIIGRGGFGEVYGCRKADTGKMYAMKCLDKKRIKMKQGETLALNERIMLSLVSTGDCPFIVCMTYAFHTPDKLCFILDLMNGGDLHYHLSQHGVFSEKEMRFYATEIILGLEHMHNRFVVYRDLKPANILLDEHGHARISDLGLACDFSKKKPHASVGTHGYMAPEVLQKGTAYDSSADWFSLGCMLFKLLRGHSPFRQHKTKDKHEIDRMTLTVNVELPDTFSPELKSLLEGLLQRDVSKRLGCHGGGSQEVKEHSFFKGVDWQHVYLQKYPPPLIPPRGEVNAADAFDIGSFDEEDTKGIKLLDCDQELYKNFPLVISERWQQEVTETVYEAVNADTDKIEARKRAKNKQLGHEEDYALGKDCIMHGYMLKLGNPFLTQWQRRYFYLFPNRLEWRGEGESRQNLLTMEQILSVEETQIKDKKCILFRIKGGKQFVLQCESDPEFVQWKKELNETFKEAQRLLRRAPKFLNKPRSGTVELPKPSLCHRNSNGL
ABL1-phosphorylated, sequence (P00519 whole entry): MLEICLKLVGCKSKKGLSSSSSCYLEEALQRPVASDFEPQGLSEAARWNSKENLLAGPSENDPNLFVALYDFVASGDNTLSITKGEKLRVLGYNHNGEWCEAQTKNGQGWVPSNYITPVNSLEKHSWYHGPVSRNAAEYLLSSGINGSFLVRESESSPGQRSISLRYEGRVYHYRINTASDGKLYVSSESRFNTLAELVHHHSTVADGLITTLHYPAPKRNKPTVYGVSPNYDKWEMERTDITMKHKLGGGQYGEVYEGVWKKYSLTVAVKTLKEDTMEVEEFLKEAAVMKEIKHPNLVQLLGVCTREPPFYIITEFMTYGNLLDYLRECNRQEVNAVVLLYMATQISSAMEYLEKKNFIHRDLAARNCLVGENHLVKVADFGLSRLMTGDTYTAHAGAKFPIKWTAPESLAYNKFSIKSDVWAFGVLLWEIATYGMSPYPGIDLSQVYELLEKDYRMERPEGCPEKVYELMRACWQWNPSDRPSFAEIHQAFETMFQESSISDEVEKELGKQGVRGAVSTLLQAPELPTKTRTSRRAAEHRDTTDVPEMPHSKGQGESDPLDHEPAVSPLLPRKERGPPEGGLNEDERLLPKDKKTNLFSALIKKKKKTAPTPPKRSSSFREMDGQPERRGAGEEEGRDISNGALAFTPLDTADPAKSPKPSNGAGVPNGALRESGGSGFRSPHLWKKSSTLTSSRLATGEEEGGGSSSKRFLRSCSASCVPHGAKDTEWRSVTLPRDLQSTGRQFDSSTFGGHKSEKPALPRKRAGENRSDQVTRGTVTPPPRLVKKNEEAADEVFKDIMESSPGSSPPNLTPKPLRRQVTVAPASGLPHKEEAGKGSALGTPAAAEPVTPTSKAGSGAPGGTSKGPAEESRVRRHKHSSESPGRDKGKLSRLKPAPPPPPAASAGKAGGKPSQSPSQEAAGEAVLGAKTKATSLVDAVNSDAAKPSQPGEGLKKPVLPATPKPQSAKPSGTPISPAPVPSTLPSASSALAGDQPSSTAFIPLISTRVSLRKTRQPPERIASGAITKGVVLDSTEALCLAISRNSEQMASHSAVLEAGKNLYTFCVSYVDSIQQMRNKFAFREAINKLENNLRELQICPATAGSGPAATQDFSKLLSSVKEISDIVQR
T13 sequence (P21802 22-821): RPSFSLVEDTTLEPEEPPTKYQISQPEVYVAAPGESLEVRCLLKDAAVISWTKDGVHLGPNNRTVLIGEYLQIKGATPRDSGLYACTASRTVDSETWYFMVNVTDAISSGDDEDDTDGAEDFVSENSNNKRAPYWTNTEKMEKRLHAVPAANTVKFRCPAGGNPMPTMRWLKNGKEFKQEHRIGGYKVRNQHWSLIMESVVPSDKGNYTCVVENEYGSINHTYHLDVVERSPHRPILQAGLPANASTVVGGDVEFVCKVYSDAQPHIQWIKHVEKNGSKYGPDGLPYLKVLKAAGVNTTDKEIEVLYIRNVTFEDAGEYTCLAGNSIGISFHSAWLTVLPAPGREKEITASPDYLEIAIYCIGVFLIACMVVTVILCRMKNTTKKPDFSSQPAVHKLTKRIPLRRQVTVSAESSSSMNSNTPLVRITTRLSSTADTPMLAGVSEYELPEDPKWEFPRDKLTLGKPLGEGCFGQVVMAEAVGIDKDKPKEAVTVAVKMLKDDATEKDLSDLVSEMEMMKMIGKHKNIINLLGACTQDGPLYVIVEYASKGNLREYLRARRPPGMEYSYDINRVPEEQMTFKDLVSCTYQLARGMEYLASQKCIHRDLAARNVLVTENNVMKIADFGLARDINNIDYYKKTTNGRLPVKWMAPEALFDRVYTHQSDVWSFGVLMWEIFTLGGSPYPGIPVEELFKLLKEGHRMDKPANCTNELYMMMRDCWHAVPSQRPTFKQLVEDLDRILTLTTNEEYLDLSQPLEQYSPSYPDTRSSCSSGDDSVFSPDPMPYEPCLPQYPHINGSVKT
ABL1(F317L)-nonphosphorylated, sequence (P00519 whole entry F317L): as the sequence (P00519 whole entry) above, with F317L counted along it
T4 sequence (Q8N5S9 whole entry): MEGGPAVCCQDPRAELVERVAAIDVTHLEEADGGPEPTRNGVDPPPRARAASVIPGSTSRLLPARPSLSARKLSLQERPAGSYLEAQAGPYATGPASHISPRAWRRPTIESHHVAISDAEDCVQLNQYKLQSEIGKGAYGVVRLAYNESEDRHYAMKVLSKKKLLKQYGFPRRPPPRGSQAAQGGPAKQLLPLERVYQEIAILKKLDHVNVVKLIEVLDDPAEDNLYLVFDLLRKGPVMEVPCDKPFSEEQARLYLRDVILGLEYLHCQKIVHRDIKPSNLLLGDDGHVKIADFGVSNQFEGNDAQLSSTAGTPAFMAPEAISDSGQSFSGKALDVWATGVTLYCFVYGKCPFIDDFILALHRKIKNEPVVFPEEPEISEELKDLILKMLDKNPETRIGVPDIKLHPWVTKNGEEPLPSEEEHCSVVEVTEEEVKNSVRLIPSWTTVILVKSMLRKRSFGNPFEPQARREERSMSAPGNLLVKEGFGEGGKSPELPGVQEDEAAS

Row | SMILES | % Ctrl [1] | % Ctrl (ABL1-phosphorylated) | % Ctrl (AKT2) | % Ctrl (AXL) | % Ctrl (BMPR2) | % Ctrl (CAMKK1) | % Ctrl (CASK) | % Ctrl (CDC2L2) | % Ctrl (CDKL2) | % Ctrl (CSK) | % Ctrl (EGFR(G719S)) | % Ctrl (EPHA4) | % Ctrl (EPHA5) | % Ctrl (ERK3) | % Ctrl (FGFR2) | % Ctrl (FLT3) | % Ctrl (FLT3(K663Q)) | % Ctrl (GRK3) | % Ctrl (ITK) | % Ctrl (MAP4K3) | also measured
1 | [2H]C([2H])([2H])N(C(=O)c1ccc(N2CCCN(c3ccnc4sc(C(N)=O)c(N)c34)CC2)cc1)C([2H])([2H])[2H] [15u_D6, 3-amino-4-(4-(4-(bis(methyl-d3)carbamoyl)phenyl)-1,4-diazepan-1-yl)thieno[2,3-b]pyridine-2-carboxamide] | 100 % Ctrl | 77 % Ctrl | 99 % Ctrl | 96 % Ctrl | 88 % Ctrl | 100 % Ctrl | 96 % Ctrl | 100 % Ctrl | 96 % Ctrl | 92 % Ctrl | 100 % Ctrl | 100 % Ctrl | 96 % Ctrl | 94 % Ctrl | 98 % Ctrl | 86 % Ctrl | 91 % Ctrl | 87 % Ctrl | 87 % Ctrl | 95 % Ctrl | % Ctrl (MET(M1250T)): 96 % Ctrl; % Ctrl (MINK): 87 % Ctrl; % Ctrl (MST1R): 99 % Ctrl; % Ctrl (NEK4): 95 % Ctrl; % Ctrl (NEK5): 100 % Ctrl; % Ctrl (PDGFRB): 93 % Ctrl; % Ctrl (PIK3CA): 79 % Ctrl; % Ctrl (PKAC-beta): 100 % Ctrl; % Ctrl (PLK3): 90 % Ctrl; % Ctrl (PRKCD): 92 % Ctrl; % Ctrl (PRKCQ): 87 % Ctrl; % Ctrl (RIPK4): 68 % Ctrl; % Ctrl [2]: 74 % Ctrl; % Ctrl (TESK1): 100 % Ctrl; % Ctrl (TIE2): 100 % Ctrl; % Ctrl (YES): 100 % Ctrl
2 | CN(C)C(=O)c1ccc(N2CCCN(c3ccnc4sc(C(N)=O)c(N)c34)CC2)cc1 [15u, 3-amino-4-(4-(4-(dimethylcarbamoyl)phenyl)-1,4-diazepan-1-yl)thieno[2,3-b]pyridine-2-carboxamide] | 99 % Ctrl | 90 % Ctrl | 86 % Ctrl | 99 % Ctrl | 79 % Ctrl | 96 % Ctrl | 71 % Ctrl | 100 % Ctrl | 86 % Ctrl | 86 % Ctrl | 100 % Ctrl | 100 % Ctrl | 89 % Ctrl | 88 % Ctrl | 99 % Ctrl | 94 % Ctrl | 96 % Ctrl | 99 % Ctrl | 88 % Ctrl | 91 % Ctrl | % Ctrl (MET(M1250T)): 100 % Ctrl; % Ctrl (MINK): 100 % Ctrl; % Ctrl (MST1R): 97 % Ctrl; % Ctrl (NEK4): 100 % Ctrl; % Ctrl (NEK5): 94 % Ctrl; % Ctrl (PDGFRB): 100 % Ctrl; % Ctrl (PIK3CA): 100 % Ctrl; % Ctrl (PKAC-beta): 83 % Ctrl; % Ctrl (PLK3): 86 % Ctrl; % Ctrl (PRKCD): 100 % Ctrl; % Ctrl (PRKCQ): 90 % Ctrl; % Ctrl (RIPK4): 89 % Ctrl; % Ctrl [2]: 100 % Ctrl; % Ctrl (TESK1): 83 % Ctrl; % Ctrl (TIE2): 72 % Ctrl; % Ctrl (YES): 99 % Ctrl
